Laboratory results as given in EP4230620A1, “SUBSTITUTED N-AMINO-N-BENZOIC ACID URACILS, THEIR SALTS AND USE OF SAID COMPOUNDS AS HERBICIDAL AGENTS” (Bayer Aktiengesellschaft, priority 2022, dated 2023).

What was measured:
Assay type in all cases: in vivo
Abutilon theophrasti = experiment: Post-emergence herbicidal action in greenhouse against ABUTH; conditions: post-emergence spray, 600 l/ha water, visual rating after ca. 3 weeks vs untreated controls, 100% = plants dead, 0% = like control plants
Excerpt: (§1) Biologische Beispiele: • Die folgenden Abkürzungen werden für die in den folgenden Tabellen aufgeführten Kultur- und Schadpflanzen verwendet: ABUTH: Abutilon theophrasti ALOMY: Alopecurus myosuroides AMARE: Amaranthus retroflexus BRSNS: Brassica napus DIGSA: Digitaria sanguinalis ECHCG: Echinochloa crus-galli GLXMA: Glycine max KCHSC: Kochia scoparia LOLRI: Lolium rigidum MATIN: Matricaria inodora ORYZA: Oryza sativa PHPBU: Pharbitis purpurea POLCO: Polygonum convolvulus SETVI: Setaria viridis VERPE: Veronica persica VIOTR: Viola tricolor TRZAS: Triticum aestivum ZEAMX: Zea mays • A. Herbizide Wirkung im Nachauflauf
(§2) Samen von mono- bzw. dikotylen Unkrautpflanzen wurden in Kunststoff- oder Holzfasertöpfen in sandigem Lehmboden ausgelegt, mit Erde abgedeckt und im Gewächshaus unter kontrollierten Wachstumsbedingungen angezogen. 2 bis 3 Wochen nach der Aussaat wurden die Versuchspflanzen im Einblattstadium behandelt. Die in Form von benetzbaren Pulvern (WP) oder als Emulsionskonzentrate (EC) formulierten erfindungsgemäßen Verbindungen wurden dann als wässrige Suspension bzw. Emulsion unter Zusatz von 0,5% Additiv mit einer Wasseraufwandmenge von umgerechnet 600 l/ha auf die grünen Pflanzenteile gesprüht. Nach ca. 3 Wochen Standzeit der Versuchspflanzen im Gewächshaus, unter optimalen Wachstumsbedingungen, wurde die Wirkung der Präparate visuell im Vergleich zu unbehandelten Kontrollen bonitiert. Beispielsweise bedeutet 100% Wirkung = Pflanzen sind abgestorben, 0% Wirkung = wie Kontrollpflanzen.
(§3) In den nachstehenden Tabellen A1 bis A11 sind die Wirkungen ausgewählter Verbindungen der allgemeinen Formel (I) gemäß der Tabelle 1 auf verschiedene Schadpflanzen und einer Aufwandmenge entsprechend 20 g/ha und niedriger, die gemäß zuvor genannter Versuchsvorschrift erhalten wurden, dargestellt. Tabelle A1a: Nachauflaufwirkung bei 1,25 g/ha gegen ABUTH in %

Alopecurus myosuroides = experiment: Post-emergence herbicidal action in greenhouse against ALOMY; conditions: 20 g/ha; post-emergence spray, 600 l/ha water; visual rating after ca. 3 weeks vs untreated controls; 100% = plants dead, 0% = like control plants
Excerpt: as §1, §2, §3

Amaranthus retroflexus = experiment: Post-emergence herbicidal action in greenhouse against AMARE; conditions: post-emergence spray, 600 l/ha water, visual rating after ca. 3 weeks vs untreated controls, 100% = plants dead, 0% = like control plants
Excerpt: as §1, §2, §3

Digitaria sanguinalis = experiment: Post-emergence herbicidal action in greenhouse against DIGSA; conditions: visual rating after ca. 3 weeks
Excerpt: as §1, §2, §3

Matricaria inodora = experiment: Post-emergence herbicidal action in greenhouse against MATIN; conditions: visual rating after ca. 3 weeks
Excerpt: as §1, §2, §3

Pharbitis purpurea = experiment: Post-emergence herbicidal action in greenhouse against PHBPU; conditions: visual rating after ca. 3 weeks
Excerpt: as §1, §2, §3

Polygonum convolvulus = experiment: Post-emergence herbicidal action in greenhouse against POLCO; conditions: visual rating after ca. 3 weeks
Excerpt: as §1, §2, §3

Setaria viridis = experiment: Post-emergence herbicidal action in greenhouse against SETVI; conditions: visual rating after ca. 3 weeks
Excerpt: as §1, §2, §3

Veronica persica = experiment: Post-emergence herbicidal action in greenhouse against VERPE; conditions: visual rating after ca. 3 weeks
Excerpt: as §1, §2, §3

Viola tricolor = experiment: Post-emergence herbicidal action in greenhouse against VIOTR; conditions: visual rating after ca. 3 weeks
Excerpt: as §1, §2, §3

Triticum aestivum = experiment: Post-emergence action on crop plants in greenhouse, TRZAS; conditions: crop plant, visual rating after ca. 3 weeks, 100% = plants dead, 0% = like control plants
Excerpt: as §1
as §2, with “Kulturpflanzen” for “Unkrautpflanzen”
(§4) In den nachstehenden Tabellen B1 bis B4 sind die Wirkungen ausgewählter Verbindungen der allgemeinen Formel (I) gemäß der Tabelle 1 auf verschiedene Kulturpflanzen und einer Aufwandmenge entsprechend 20 g/ha und niedriger, die gemäß zuvor genannter Versuchsvorschrift erhalten wurden, dargestellt. Tabelle B1a: Nachauflaufwirkung bei 1,25 g/ha gegen ZEAMX in %

Oryza sativa = experiment: Post-emergence action on crop plants in greenhouse, ORYZA; conditions: crop plant, visual rating after ca. 3 weeks, 100% = plants dead, 0% = like control plants
Excerpt: as §1
as §2, with “Kulturpflanzen” for “Unkrautpflanzen”
as §4

SMILES | Nachauflaufwirkung gegen ABUTH (Abutilon theophrasti; 5 g/ha) [%] | Nachauflaufwirkung gegen ABUTH (Abutilon theophrasti; 20 g/ha) [%] | Nachauflaufwirkung gegen AMARE (Amaranthus retroflexus; 1,25 g/ha) [%] | Nachauflaufwirkung gegen AMARE (Amaranthus retroflexus; 5 g/ha) [%] | Nachauflaufwirkung gegen AMARE (Amaranthus retroflexus; 20 g/ha) [%] | Nachauflaufwirkung gegen DIGSA (Digitaria sanguinalis; 5 g/ha) [%] | Nachauflaufwirkung gegen DIGSA (Digitaria sanguinalis; 20 g/ha) [%] | Nachauflaufwirkung gegen MATIN (Matricaria inodora; 5 g/ha) [%] | Nachauflaufwirkung gegen MATIN (Matricaria inodora; 20 g/ha) [%] | Nachauflaufwirkung gegen PHBPU (Pharbitis purpurea; 1,25 g/ha) [%] | Nachauflaufwirkung gegen PHBPU (Pharbitis purpurea; 5 g/ha) [%] | Nachauflaufwirkung gegen PHBPU (Pharbitis purpurea; 20 g/ha) [%] | Nachauflaufwirkung gegen POLCO (Polygonum convolvulus; 20 g/ha) [%] | Nachauflaufwirkung gegen SETVI (Setaria viridis; 1,25 g/ha) [%] | Nachauflaufwirkung gegen SETVI (Setaria viridis; 5 g/ha) [%] | Nachauflaufwirkung gegen SETVI (Setaria viridis; 20 g/ha) [%] | Nachauflaufwirkung gegen VERPE (Veronica persica; 5 g/ha) [%] | Nachauflaufwirkung gegen VERPE (Veronica persica; 20 g/ha) [%] | Nachauflaufwirkung gegen VIOTR (Viola tricolor; 1,25 g/ha) [%] | Nachauflaufwirkung gegen VIOTR (Viola tricolor; 5 g/ha) [%] | other results
C=CCOC(=O)C(C)(C)OC(=O)c1cc(-n2c(=O)cc(C(F)(F)F)n(N)c2=O)c(F)cc1Cl [I.1-471, 1-(Allyloxy)-2-methyl-1-oxopropan-2-yl-5-[3-amino-2,6-dioxo-4-(trifluormethyl)-3,6-dihydropyrimidin-1(2H)-yl]-2-chlor-4-fluorbenzoat] | 100 | 100 | 100 | 100 | 100 | 100 | 100 | 100 | 100 | 100 | 100 | 100 | 100 | 100 | 100 | 100 | 100 | 100 | 90 | 100 | Nachauflaufwirkung gegen ABUTH (Abutilon theophrasti; 1,25 g/ha): 100%; Nachauflaufwirkung gegen ALOMY (Alopecurus myosuroides): 100%; Nachauflaufwirkung gegen POLCO (Polygonum convolvulus; 5 g/ha): 100%; Nachauflaufwirkung gegen VERPE (Veronica persica; 1,25 g/ha): 100%; Nachauflaufwirkung gegen VIOTR (Viola tricolor; 20 g/ha): 100%; Nachauflaufwirkung gegen TRZAS (Triticum aestivum; 1,25 g/ha): 0%; Nachauflaufwirkung gegen TRZAS (Triticum aestivum; 5 g/ha): 20%; Nachauflaufwirkung gegen ORYZA (Oryza sativa; 1,25 g/ha): 0%
CC(C)=NOC(=O)C(C)(C)OC(=O)c1cc(-n2c(=O)cc(C(F)(F)F)n(N)c2=O)ccc1Cl [I.2-491] | 100 | 100 | 80 | 100 | 100 | 100 | 100 | 80 | 100 | 90 | 100 | 100 | 100 | 90 | 100 | 100 | 100 | 100 | 80 | 100 | Nachauflaufwirkung gegen VIOTR (Viola tricolor; 20 g/ha): 100%; Nachauflaufwirkung gegen TRZAS (Triticum aestivum; 1,25 g/ha): 0%; Nachauflaufwirkung gegen TRZAS (Triticum aestivum; 5 g/ha): 0%; Nachauflaufwirkung gegen TRZAS (Triticum aestivum; 20 g/ha): 20%; Nachauflaufwirkung gegen ORYZA (Oryza sativa; 1,25 g/ha): 0%; Nachauflaufwirkung gegen ORYZA (Oryza sativa; 5 g/ha): 0%
